Measurements published in patent publication US12263170B2, “Systems and methods for treating cancer” (priority 2015, dated 2025).

Tests used:
A549 cell line = assay: Percent viability with AZD1775, LKB1 rescue vs KDLKB1 transfection (FIG. 2B); type: cell-based, human; conditions: A549 cells with rescue copy of LKB1 compared to control KDLKB1 (non-functional kinase)
Description: FIG. 2B illustrates, in accordance with embodiments herein, the role of LKB1 in the sensitivity of […] to AZD1775. The A549 cell line was transfected with either a rescue copy of LKB1 (“LKB1”) or a copy of LKB1 with a non-functional kinase domain (“KDLKB1”) that produces non-functional LKB1. […] Next, referring to FIGS. 2A-2C, the LKB1 deficient lines discussed above in reference to FIGS. 1A and 1B were assessed for percent viability in the presence of increasing concentrations of AZD1775. Moreover, as all three cell lines were already LKB1 deficient, the inventors wanted to elucidate the role of LKB1 in the sensitivity of these cells to AZD1775. As such, each cell line with transfected with either a rescue copy of LKB1 (referred to as “LKB1” in these figures) or a copy of LKB1 with a non-functional kinase domain (referred to as KDLKB1 in these figures), which would produce non-functional LKB1.

[1] = tested on: LKB1 deficient cells (A427, A549, and H2030); assay: Viability of KRas mutant NSCLC adenocarcinoma cell lines at various concentrations of AZD1775 (FIGS. 1A, 1B); type: cell-based, human; conditions: LKB1 deficient cells compared with the other KRas mutant NSCLC cell lines
Description: Referring to FIGS. 1A and 1B, the inventors assessed the impact of various concentrations of a G2/M checkpoint inhibitor (i.e., Wee1 kinase inhibitor-AZD1775) on various cell lines with different genetic backgrounds. All of the cell lines tested in FIGS. 1A and 1B where KRas mutant, some of the cell lines were p53 mutants, and some of the cell lines (i.e., A427, A549, and H2030) were LKB1 deficient. All cell lines were adenocarcinoma from patients with NSCLC.

A549 and H2030 cells = assay: Cell signaling molecules after AZD1775 alone and with 2Gy ionizing radiation (FIGS. 4A, 4B); type: cell-based, human; conditions: AZD1775 alone and in combination with 2Gy of ionizing radiation
Description: Next, referring now to FIGS. 4A and 4B, the investigators examined cell signaling molecules in A549 and H2030 cells, including both rescue and control conditions. The investigators treated with AZD1775 alone and in combination with 2Gy of ionizing radiation.

[2] = tested on: 3381A murine cells (KRas mutant and LKB1 deficient); assay: Percent viability with AZD1775, LKB1 rescue vs empty vector pBabe (FIG. 2D); type: cell-based; conditions: 3381A cells with rescue copy of LKB1 compared to control empty vector (pBabe)
Description: Referring now to FIG. 2D, a similar experiment was conducted on murine cells that were KRas mutant and LKB1 deficient (3381A cells).

[3] = tested on: H2030 cells (KRas mutant and LKB1 deficient); assay: Viability with AZD1775 combined with cisplatin, pemetrexed or gemcitabine (FIGS. 3A-3C); type: cell-based, human; conditions: AZD1775 alone
Description: Similar to the previous experiments, H2030 cells (KRas mutant and LKB1 deficient) were transfected with a rescue copy of LKB1 or a version of LKB1 with a non-functional kinase domain that produces non-functional LKB1 protein. Moreover, these different cells were treated with AZD1775 (also referred to as MK1775) in combination with cisplatin (FIG. 3A), pemetrexed (FIG. 3B), or gemcitabine (FIG. 3C).

A427 cell line = assay: Percent viability with AZD1775, LKB1 rescue vs KDLKB1 transfection (FIG. 2A); type: cell-based, human; conditions: A427 cells with rescue copy of LKB1 compared to control KDLKB1 (non-functional kinase)
Description: FIG. 2A illustrates, in accordance with embodiments herein, the role of LKB1 in the sensitivity of A427 cells to AZD1775. The A427 cell line was transfected with either a rescue copy of LKB1 (“LKB1”) or a copy of LKB1 with a non-functional kinase domain (“KDLKB1”) that produces non-functional LKB1. […] Next, referring to FIGS. 2A-2C, the LKB1 deficient lines discussed above in reference to FIGS. 1A and 1B were assessed for percent viability in the presence of increasing concentrations of AZD1775. Moreover, as all three cell lines were already LKB1 deficient, the inventors wanted to elucidate the role of LKB1 in the sensitivity of these cells to AZD1775. As such, each cell line with transfected with either a rescue copy of LKB1 (referred to as “LKB1” in these figures) or a copy of LKB1 with a non-functional kinase domain (referred to as KDLKB1 in these figures), which would produce non-functional LKB1.

H2030 cell line = assay: Percent viability with AZD1775, LKB1 rescue vs KDLKB1 transfection (FIG. 2C); type: cell-based, human; conditions: H2030 cells with rescue copy of LKB1 compared to control KDLKB1 (non-functional kinase)
Description: FIG. 2C illustrates, in accordance with embodiments herein, the role of LKB1 in the sensitivity of […] to AZD1775. The H2030 cell line was transfected with either a rescue copy of LKB1 (“LKB1”) or a copy of LKB1 with a non-functional kinase domain (“KDLKB1”) that produces non-functional LKB1.
Next, referring to FIGS. 2A-2C, the LKB1 deficient lines discussed above in reference to FIGS. 1A and 1B were assessed for percent viability in the presence of increasing concentrations of AZD1775. Moreover, as all three cell lines were already LKB1 deficient, the inventors wanted to elucidate the role of LKB1 in the sensitivity of these cells to AZD1775. As such, each cell line with transfected with either a rescue copy of LKB1 (referred to as “LKB1” in these figures) or a copy of LKB1 with a non-functional kinase domain (referred to as KDLKB1 in these figures), which would produce non-functional LKB1.

[4] = tested on: mutant kras/lkb 1 deficient nsclc tumors in transgenic mice; assay: Survival of adenoCre-infected KRasG12D/LKB1 FL/FL/luci mice (FIG. 9); type: in vivo; conditions: Cisplatin once per week 2.5 mg/kg, with or without AZD1775 30 mg/kg three times per week; treated for four weeks; log-rank analysis
Description: Referring to FIG. 9, the investigators transiently infected 6-8 week old KRas^G12D/LKB 1^FL/FL/luci with 5×10^6 P.F.U. of adenoCre via intratracheal inhalation. Mice received scans using the Xenogen IVIS at 8 weeks to identify disease. Mice were then randomized to Cisplatin (once per week, 2.5 mg/kg) or AZD1775 (30 mg/kg, three times per week)+cisplatin and treated for four weeks. Survival was calculated via log-rank analysis. It was observed that the median survival rate of mice receiving Cisplatin was 12 weeks, whereas the median survival rate of mice receiving Cisplatin+AZD1775 was 14 weeks. For this set of experiments, the hazard ratio was 0.3972, while the confidence interval was 0.0605-0.6086.

## C=CCn1c(=O)c2cnc(Nc3ccc(N4CCN(C)CC4)cc3)nc2n1-c1cccc(C(C)(C)O)n1 [AZD1775]
A549 cell line
  sensitivity to AZD1775 as measured by percent viability: less sensitive
[1]; FIG. 1B
  EC50 values: lowest EC50 values
[1]; increasing concentrations of AZD1775, FIG. 1A
  viability: greatest reduced viability
A549 and H2030 cells; LKB1 (rescue) cells
  phosphorylated AMPK: increased amounts of phosphorylated AMPK
A549 and H2030 cells; LKB1-deficient cells
  phosphorylated H2AX (indicator of DNA damage): increased amount of phosphorylated H2AX
[2]
  sensitivity to AZD1775 as measured by percent viability: less sensitive
[3]
  cell viability: negative impact on cell viability
A427 cell line
  sensitivity to AZD1775 as measured by percent viability: less sensitive
H2030 cell line
  sensitivity to AZD1775 as measured by percent viability: less sensitive

## N.N.[Cl][Pt][Cl] [Cisplatin]
[4]
  median survival rate: 12 weeks
